Values quoted from earlier work as cited in paper PMC10687071 (The Journal of Biological Chemistry, 2023).

Experiments:
[1] = test system: PAS domains of EAG channels; parameters: method as in PMID 31315662, PMID 32047112; conditions: cited from earlier work
[2] = test system: PAS domains of ERG3 channels; parameters: method as in PMID 32723862; conditions: cited from earlier work

Row | SMILES | Binding to PAS domains of EAG channels [1] | Binding to PAS domains of ERG3 channels [2]
1 | CN(C)CCCN1c2ccccc2Sc2ccc(Cl)cc21 [chlorpromazine] | bind | 
2 | C=CC1=C(C)c2cc3[n-]c(cc4[n-]c(cc5nc(cc1n2)C(C)=C5C=C)c(C)c4CCC(=O)O)c(CCC(=O)O)c3C.[Fe+2] [heme] |  | bind
3 | C=CCCCCCCCCC(=O)O [undecylenic acid] | bind | 
